From a compilation of properties of binary mixtures (doi:10.1016/j.molliq.2018.07.077)

Assay: xn = mol fraction of the nth substance listed
Settings: 101 kPa

SMILES: C[n+]1ccn(CCCC#N)c1.O=S(=O)([O-])C(F)(F)F + CC#N
- electrical conductivity (288.15 K, x1 = 0.2002): 1.88 S/m
- viscosity (288.15 K, x1 = 0.2002): 6.79 mPa·s
- electrical conductivity (288.15 K, x1 = 0.4006): 0.55 S/m
- viscosity (288.15 K, x1 = 0.4006): 70.7 mPa·s
- electrical conductivity (288.15 K, x1 = 0.6005): 0.175 S/m
- viscosity (288.15 K, x1 = 0.6005): 160 mPa·s
- electrical conductivity (288.15 K, x1 = 0.698): 0.07 S/m
- viscosity (288.15 K, x1 = 0.698): 340 mPa·s
- electrical conductivity (288.15 K, x1 = 0.7996): 0.053 S/m
- viscosity (288.15 K, x1 = 0.7996): 579 mPa·s
- electrical conductivity (288.15 K, x1 = 0.9007): 0.031 S/m
- viscosity (288.15 K, x1 = 0.9007): 874 mPa·s
- electrical conductivity (288.15 K, x1 = 1): 0.023 S/m
- viscosity (288.15 K, x1 = 1): 1182 mPa·s
- electrical conductivity (293.15 K, x1 = 0.1002): 2.87 S/m
- viscosity (293.15 K, x1 = 0.1002): 1.51 mPa·s
- electrical conductivity (293.15 K, x1 = 0.2002): 2.08 S/m
- viscosity (293.15 K, x1 = 0.2002): 5.95 mPa·s
- electrical conductivity (293.15 K, x1 = 0.2994): 1.19 S/m
- viscosity (293.15 K, x1 = 0.2994): 14.1 mPa·s
- electrical conductivity (293.15 K, x1 = 0.4006): 0.651 S/m
- viscosity (293.15 K, x1 = 0.4006): 55.5 mPa·s
- electrical conductivity (293.15 K, x1 = 0.5): 0.246 S/m
- viscosity (293.15 K, x1 = 0.5): 85.7 mPa·s
- electrical conductivity (293.15 K, x1 = 0.698): 0.093 S/m
- viscosity (293.15 K, x1 = 0.698): 255 mPa·s
- electrical conductivity (293.15 K, x1 = 0.7996): 0.079 S/m
- viscosity (293.15 K, x1 = 0.7996): 417 mPa·s
- electrical conductivity (293.15 K, x1 = 0.9007): 0.044 S/m
- viscosity (293.15 K, x1 = 0.9007): 625 mPa·s
- electrical conductivity (293.15 K, x1 = 1): 0.033 S/m
- viscosity (293.15 K, x1 = 1): 811 mPa·s
- electrical conductivity (298.15 K, x1 = 0.1002): 3.04 S/m
- viscosity (298.15 K, x1 = 0.1002): 1.4 mPa·s
- electrical conductivity (298.15 K, x1 = 0.2002): 2.28 S/m
- viscosity (298.15 K, x1 = 0.2002): 5.23 mPa·s
- electrical conductivity (298.15 K, x1 = 0.2994): 1.35 S/m
- viscosity (298.15 K, x1 = 0.2994): 12.15 mPa·s
- electrical conductivity (298.15 K, x1 = 0.4006): 0.766 S/m
- viscosity (298.15 K, x1 = 0.4006): 44.44 mPa·s
- electrical conductivity (298.15 K, x1 = 0.5): 0.315 S/m
- viscosity (298.15 K, x1 = 0.5): 68.6 mPa·s
- electrical conductivity (298.15 K, x1 = 0.6005): 0.278 S/m
- viscosity (298.15 K, x1 = 0.6005): 92 mPa·s
- electrical conductivity (298.15 K, x1 = 0.698): 0.124 S/m
- viscosity (298.15 K, x1 = 0.698): 195.4 mPa·s
- electrical conductivity (298.15 K, x1 = 0.9007): 0.061 S/m
- viscosity (298.15 K, x1 = 0.9007): 450 mPa·s
- electrical conductivity (298.15 K, x1 = 1): 0.046 S/m
- viscosity (298.15 K, x1 = 1): 581 mPa·s
- electrical conductivity (303.15 K, x1 = 0.1002): 3.22 S/m
- viscosity (303.15 K, x1 = 0.1002): 1.3 mPa·s
- electrical conductivity (303.15 K, x1 = 0.2002): 2.49 S/m
- viscosity (303.15 K, x1 = 0.2002): 4.65 mPa·s
- electrical conductivity (303.15 K, x1 = 0.2994): 1.51 S/m
- viscosity (303.15 K, x1 = 0.2994): 10.55 mPa·s
- electrical conductivity (303.15 K, x1 = 0.4006): 0.896 S/m
- viscosity (303.15 K, x1 = 0.4006): 36.24 mPa·s
- electrical conductivity (303.15 K, x1 = 0.5): 0.394 S/m
- viscosity (303.15 K, x1 = 0.5): 54.8 mPa·s
- electrical conductivity (303.15 K, x1 = 0.6005): 0.345 S/m
- viscosity (303.15 K, x1 = 0.6005): 72.2 mPa·s
- electrical conductivity (303.15 K, x1 = 0.698): 0.163 S/m
- viscosity (303.15 K, x1 = 0.698): 149 mPa·s
- electrical conductivity (303.15 K, x1 = 0.7996): 0.151 S/m
- viscosity (303.15 K, x1 = 0.7996): 230 mPa·s
- electrical conductivity (308.15 K, x1 = 0.1002): 3.41 S/m
- viscosity (308.15 K, x1 = 0.1002): 1.21 mPa·s
- electrical conductivity (308.15 K, x1 = 0.2002): 2.69 S/m
- viscosity (308.15 K, x1 = 0.2002): 4.18 mPa·s
- electrical conductivity (308.15 K, x1 = 0.4006): 1.03 S/m
- viscosity (308.15 K, x1 = 0.4006): 29.81 mPa·s
- electrical conductivity (308.15 K, x1 = 0.5): 0.485 S/m
- viscosity (308.15 K, x1 = 0.5): 44.07 mPa·s
- electrical conductivity (308.15 K, x1 = 0.6005): 0.419 S/m
- viscosity (308.15 K, x1 = 0.6005): 57.2 mPa·s
- electrical conductivity (308.15 K, x1 = 0.698): 0.213 S/m
- viscosity (308.15 K, x1 = 0.698): 116.3 mPa·s
- electrical conductivity (308.15 K, x1 = 0.7996): 0.193 S/m
- viscosity (308.15 K, x1 = 0.7996): 174 mPa·s
- electrical conductivity (308.15 K, x1 = 0.9007): 0.106 S/m
- viscosity (308.15 K, x1 = 0.9007): 245 mPa·s
- electrical conductivity (313.15 K, x1 = 0.1002): 3.57 S/m
- viscosity (313.15 K, x1 = 0.1002): 1.13 mPa·s
- electrical conductivity (313.15 K, x1 = 0.2994): 1.88 S/m
- viscosity (313.15 K, x1 = 0.2994): 8.05 mPa·s
- electrical conductivity (313.15 K, x1 = 0.4006): 1.17 S/m
- viscosity (313.15 K, x1 = 0.4006): 24.79 mPa·s
- electrical conductivity (313.15 K, x1 = 0.6005): 0.5 S/m
- viscosity (313.15 K, x1 = 0.6005): 46.5 mPa·s
- electrical conductivity (313.15 K, x1 = 0.698): 0.274 S/m
- viscosity (313.15 K, x1 = 0.698): 91.3 mPa·s
- electrical conductivity (313.15 K, x1 = 0.9007): 0.135 S/m
- viscosity (313.15 K, x1 = 0.9007): 185 mPa·s
- electrical conductivity (313.15 K, x1 = 1): 0.104 S/m
- viscosity (313.15 K, x1 = 1): 231 mPa·s
- electrical conductivity (318.15 K, x1 = 0.2002): 3.08 S/m
- viscosity (318.15 K, x1 = 0.2002): 3.41 mPa·s
- electrical conductivity (318.15 K, x1 = 0.2994): 2.08 S/m
- viscosity (318.15 K, x1 = 0.2994): 7.12 mPa·s
- electrical conductivity (318.15 K, x1 = 0.4006): 1.32 S/m
- viscosity (318.15 K, x1 = 0.4006): 21.09 mPa·s
- electrical conductivity (318.15 K, x1 = 0.6005): 0.593 S/m
- viscosity (318.15 K, x1 = 0.6005): 37.8 mPa·s
- electrical conductivity (318.15 K, x1 = 0.7996): 0.288 S/m
- viscosity (318.15 K, x1 = 0.7996): 104.7 mPa·s
- electrical conductivity (318.15 K, x1 = 1): 0.131 S/m
- viscosity (318.15 K, x1 = 1): 177.1 mPa·s
- electrical conductivity (323.15 K, x1 = 0.2002): 3.28 S/m
- viscosity (323.15 K, x1 = 0.2002): 3.13 mPa·s
- electrical conductivity (323.15 K, x1 = 0.2994): 2.29 S/m
- viscosity (323.15 K, x1 = 0.2994): 6.32 mPa·s
- electrical conductivity (323.15 K, x1 = 0.4006): 1.48 S/m
- viscosity (323.15 K, x1 = 0.4006): 18.37 mPa·s
- electrical conductivity (323.15 K, x1 = 0.5): 0.781 S/m
- viscosity (323.15 K, x1 = 0.5): 25.17 mPa·s
- electrical conductivity (323.15 K, x1 = 0.698): 0.44 S/m
- viscosity (323.15 K, x1 = 0.698): 61.3 mPa·s
- electrical conductivity (323.15 K, x1 = 0.7996): 0.341 S/m
- viscosity (323.15 K, x1 = 0.7996): 83.4 mPa·s
- electrical conductivity (323.15 K, x1 = 0.9007): 0.205 S/m
- viscosity (323.15 K, x1 = 0.9007): 104.8 mPa·s
- electrical conductivity (323.15 K, x1 = 1): 0.161 S/m
- viscosity (323.15 K, x1 = 1): 141.4 mPa·s
